Test results from PubChem BioAssay AID608 (Sanford-Burnham Center for Chemical Genomics, 2007).
Active and inactive are the calls of the source. How the calls were made is not given here.

The molecules below were run against Peptidyl-prolyl cis-trans isomerase FKBP1A (Homo sapiens) (UniProt P62942) (assay: FKBP12 binders, biophysical, NMR detection (AID 608)). Conditions: NMR binding, purified FKBP12.
Chain of Peptidyl-prolyl cis-trans isomerase FKBP1A (Homo sapiens) (P62942 whole entry, looked up): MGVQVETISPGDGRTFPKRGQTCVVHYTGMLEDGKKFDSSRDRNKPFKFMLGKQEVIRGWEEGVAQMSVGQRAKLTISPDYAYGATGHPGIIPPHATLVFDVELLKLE

Compound | Kd
Cc1c(C(=O)Nc2cnccn2)oc2ccccc12 | > 4 mM (inactive)
Nc1cc(=O)[nH]c(=S)n1-c1cccc(C(F)(F)F)c1 | > 4 mM (inactive)
CCN1CCC(NC2CCC(O)CC2)CC1 (stereo unspecified) | > 4 mM (inactive)
O=c1nc(C(F)(F)F)nc2ccccn12 | > 4 mM (inactive)
CC(=O)Nc1sc(C)c(C)c1C(N)=O | > 4 mM (inactive)
CN1C(=O)C2C=CC1C1C(=O)N(c3ccccc3)C(=O)C21 (stereo unspecified) | > 4 mM (inactive)
S=C(NCc1cccnc1)NC1CC1 | > 4 mM (inactive)
O=C(CSc1cccc2cccnc12)N1CCCC1 | > 4 mM (inactive)
COC(=O)Nc1ccc2ncn(C)c(=O)c2c1 | > 4 mM (inactive)
COc1ncccc1N | > 4 mM (inactive)
Nc1nc(-c2ccccc2)cc(=O)[nH]1 | > 4 mM (inactive)
Cc1ccc(/C=N/NC(N)=O)o1 | > 4 mM (inactive)
Cc1n[nH]c(C)c1N | > 4 mM (inactive)
COc1ccc(/C=C/c2cc(O)cc(O)c2)cc1 | > 4 mM (inactive)
O=C(NCc1ccco1)c1ccc(=O)[nH]c1 | > 4 mM (inactive)
Cn1cnc2c(=O)[nH]cc([N+](=O)[O-])c21 | > 4 mM (inactive)
O=c1cc(-c2cc(O)c(O)c(O)c2)oc2cc(O)cc(O)c12 | > 4 mM (inactive)
CCc1cc(=O)[nH]c(SCC(=O)NCCOC)n1 | > 4 mM (inactive)
COc1ccc(N2CC(=O)NC2=O)cc1 | > 4 mM (inactive)

Compound | Kd
CC1=CC(C)C(C(=O)O)C(C(=O)N2CCN(C)CC2)C1 (stereo unspecified) | > 4 mM (inactive)
O=C(Nn1cnnc1)c1ccccc1Cl | > 4 mM (inactive)
CN1CCCCC1c1ccc(-c2cccnc2)nc1 (stereo unspecified) | > 4 mM (inactive)
Nc1ncnc(Cl)c1[N+](=O)[O-] | > 4 mM (inactive)
CNC(=S)Nc1ccc(OC)cc1C | > 4 mM (inactive)
C/C=C/C(=O)Nc1ccc(NC(C)=O)cc1 | > 4 mM (inactive)
Cc1c(C)[n+](=O)c(-c2cccs2)c(C)n1[O-] | > 4 mM (inactive)
O=C(CCc1ccc(O)cc1)c1c(O)cc(O)cc1O[C@@H]1O[C@H](CO)[C@@H](O)[C@H](O)[C@H]1O | > 4 mM (inactive)
CC(=O)Nc1cccc(N2C(=O)CCC2=O)c1 | > 4 mM (inactive)
C=C[C@H]1CN2CC[C@H]1C[C@H]2[C@H](O)c1ccnc2ccccc12 | > 4 mM (inactive)
Cc1nnc(SCC(=O)NCc2ccccc2)[nH]c1=O | > 4 mM (inactive)
CC(C)=CCOc1cc2oc(=O)ccc2cc1O | > 4 mM (inactive)
CC(=O)O[C@H]1CC[C@@]2(C)C(CC[C@]3(C)C2CC=C2C4CC(C)(C)CC[C@]4(C)CC[C@]23C)C1(C)C (stereo partly specified) | > 4 mM (inactive)
CCOC(=O)c1ccc(F)c(F)c1 | > 4 mM (inactive)
Cc1cc(N2C(=O)CCC2=O)n(-c2ccccc2)n1 | > 4 mM (inactive)
COc1cc(O)ccc1C(C)=O | > 4 mM (inactive)
C[C@@H]1OC(O[C@H]2[C@H](OC(=O)[C@]34CCC(C)(C)CC3C3=CCC5[C@@]6(C)CC[C@H](OC7O[C@@H](C)[C@H](O[C@@H]8OC[C@@H](O)[C@H](O)[C@H]8O)[C@@H](O)[C@H]7O)C(C)(C)C6CC[C@@]5(C)[C@]3(C)CC4O)OC[C@H](O)[C@H]2O)[C@H](O)[C@H](O)[C@H]1O[C@@H]1O[C@H](CO)[C@@H](O)[C@H](O)[C@H]1O (stereo partly specified) | > 4 mM (inactive)
Cc1cc(=O)c2c(O)cc(O)c(C)c2o1 | > 4 mM (inactive)
COc1ccc([C@@H]2CC(=O)c3c(O)cc(O[C@@H]4O[C@H](CO[C@H]5O[C@@H](C)[C@H](O)[C@@H](O)[C@H]5O)[C@@H](O)[C@H](O)[C@H]4O)cc3O2)cc1O | > 4 mM (inactive)

Compound | Kd
CC(CCC(=O)O)[C@H]1CCC2C3C[C@H](O)[C@@H]4C[C@H](O)CC[C@]4(C)C3CC[C@@]21C (stereo partly specified) | > 4 mM (inactive)
CC(=O)NC1(NC(C)=O)CCN(C)CC1 | > 4 mM (inactive)
COCC(=O)Nc1ccc(C)c(Cl)c1 | > 4 mM (inactive)
C[n+]1cccc(C(=O)[O-])c1 | > 4 mM (inactive)
O=C(O)c1ccccc1N1CCOCC1 | > 4 mM (inactive)
Cc1cccc(NC(=O)c2ccccc2C(=O)O)c1 | > 4 mM (inactive)
NC(=O)C1CCN(C(=S)c2ccccc2)CC1 | > 4 mM (inactive)
CCOC(=O)c1cnn2ccccc12 | > 4 mM (inactive)
COc1cc([C@@H]2c3cc4c(cc3[C@H](OC(C)=O)[C@H]3COC(=O)[C@H]23)OCO4)cc(OC)c1OC | > 4 mM (inactive)
Cc1nn2c(=O)c(NC(=O)c3ccccc3)cnc2s1 | > 4 mM (inactive)
COc1ccc(-c2cc(=O)c3c(OC)c(OC)c(OC)c(OC)c3o2)cc1 | > 4 mM (inactive)
CC(=O)c1cccc(NC(=O)NN2CCOCC2)c1 | > 4 mM (inactive)
COc1ccc(NC2=NCC(C)S2)cc1 (stereo unspecified) | > 4 mM (inactive)
O=C(Nc1ccccc1)Nc1ccccn1 | > 4 mM (inactive)
Cc1ccc(N2C(=O)CCC2=O)cc1 | > 4 mM (inactive)
O=C(Cn1c(-c2cscn2)nc2ccccc21)Nc1ccccc1F | > 13.6 mM (inactive)
CC(=O)c1ccc(Cc2cnc(N)s2)cc1 | > 4 mM (inactive)
O=c1[nH]nc(Cc2ccccn2)c2ccccc12 | > 4 mM (inactive)
